Source: patent publication US8309558B2, “Compounds for the treatment of hepatitis C” (Bristol-Myers Squibb Company, priority 2008, dated 2012)
Where two headings read alike, the source gives them in different places.

Legend:
[1] = system: HCV; conditions: cited from earlier work
[2] = system: HUH-7 cells, constitutively expressing the HCV replicon; assay: HCV Replicon Luciferase Reporter Assay (384-well plates); assay type: cell-based; conditions: Hepatitis C virus, untitled table after Table 1b, *EC50 determined using 384 well plate method
Description: The HCV replicon luciferase assay was developed to monitor the inhibitory effects of compounds described in the disclosure on HCV viral replication. Utilization of a replicon luciferase reporter assay was first described by Krieger et al (Krieger N, Lohmann V, and Bartenschlager R, J. Virol. 75(10):4614-4624 (2001)). HUH-7 cells, constitutively expressing the HCV replicon, were grown in Dulbecco's Modified Eagle Media (DMEM) (Gibco-BRL) containing 10% Fetal calf serum (FCS) (Sigma) and 1 mg/ml G418 (Gibco-BRL). Compounds were serially diluted 3 folds in DMSO for a twenty-point titration and subsequently transferred to sterile 384-well tissue-culture treated plates (Corning cat #3571). The plates were then seeded with 50 μl of cells at a density of 3.0×10^3 cells/well in DMEM containing 4% FCS (final DMSO concentration at 0.5%). After 3 days incubation at 37° C., cells were analyzed for Renilla Luciferase activity using the EnduRen as substrate (Promega cat #E6485). The EnduRen substrate was diluted in DMEM and then added to the plates to a final concentration of 7.5 μM. The plates were incubated for 2 hrs at 37° C. and then read immediately for 30 seconds with Viewlux Imager (PerkinElmer) using a luminescence program. To assess cytotoxicity of compounds, CC50 values were generated by multiplexing the EnduRen-containing plates with Cell Titer-Blue (Promega, cat #G8082). 3 μl of Cell-Titer Blue was added to each well and incubated for 8 hrs at 37° C. The fluorescence signal from each well was read, with an excitation wavelength at 525/10 nm and an emission wavelength of 598/10 nm, using the Viewlux Imager.

[3] = target: T1, HCV NS5B RdRp genotype 1b (Hepatitis C virus genotype 1b, UniProt Q9WMX2); assay: Standard HCV NS5B RdRp enzyme assay; assay type: biochemical; conditions: HCV NS5B RdRp genotype 1b, read-out: IC50
T1 construct: The protein was expressed with an 18 amino acid C-terminal truncation to enhance the solubility; made in house; host or cells: E. coli BL21(DE3), pET21a vector
T1 sequence (Q9WMX2 2420-2992): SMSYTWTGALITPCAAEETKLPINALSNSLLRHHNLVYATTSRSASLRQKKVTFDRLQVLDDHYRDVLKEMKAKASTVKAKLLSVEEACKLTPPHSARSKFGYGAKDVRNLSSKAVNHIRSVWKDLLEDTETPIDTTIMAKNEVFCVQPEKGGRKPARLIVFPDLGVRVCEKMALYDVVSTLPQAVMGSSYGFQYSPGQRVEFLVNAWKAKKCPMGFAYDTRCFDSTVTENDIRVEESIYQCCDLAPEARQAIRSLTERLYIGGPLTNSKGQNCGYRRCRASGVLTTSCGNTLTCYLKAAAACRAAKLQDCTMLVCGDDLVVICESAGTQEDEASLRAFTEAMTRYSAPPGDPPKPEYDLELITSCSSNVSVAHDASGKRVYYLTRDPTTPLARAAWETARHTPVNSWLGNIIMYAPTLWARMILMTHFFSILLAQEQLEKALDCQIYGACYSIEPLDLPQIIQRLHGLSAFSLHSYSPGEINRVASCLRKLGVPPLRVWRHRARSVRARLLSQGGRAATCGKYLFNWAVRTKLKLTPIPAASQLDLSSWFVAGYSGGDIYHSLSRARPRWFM
In short: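 C-terminally truncated (18 aa) genotype 1b NS5B from E. coli, 28 nM, with 6 nM polyA template, 180 nM biotinylated oligo-dT12 primer and 3H-UTP (0.29 μM total UTP). Hepes pH 7.5 buffer with 2% DMSO; 60 min at 30° C. EDTA stop, SPA read-out; IC50 from seven concentrations by four-parameter fit.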

[4] = system: HCV replicon cells; assay: HCV replicon FRET / luciferase assay (96-well plates); assay type: cell-based; conditions: Hepatitis C virus, HCV replicon, read-out: EC50
In short: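 Replicon cells (with or without Renilla luciferase reporter) incubated with titrated compounds at 37 °C; Alamar blue read for cytotoxicity first. NS3 protease activity read kinetically with 20 μM EDANS/DABCYL FRET peptide in lysis reagent plus 150 mM NaCl (ex 340/em 490), or by Dual-Glo luciferase. EC50 = 50% signal reduction after protease-inhibitor background subtraction.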

[5] = untitled table after Table 1b, values without asterisk
[6] = second table titled Table 1d (numbers)
[7] = 24 h, second table titled Table 1d (numbers)

Structure (SMILES)	IC50 ([3]; untitled table after Table 1b) [nM]	EC50 [4, 5] [nM]	further results
CNC(=O)c1c(-c2ccc(F)cc2)oc2cc(N(CCO)S(C)(=O)=O)c(C3CC3)cc12 [HCV-796]	–	–	hepatic toxicity ([1]; patients, extended dosing of the combination regimens): hepatic toxicity observed; HCV RNA levels in patients ([1]; single agent or combined with interferon and ribavirin): reduce HCV RNA levels in patients
CNC(=O)c1c(-c2ccc(F)cc2)oc2ccc(-c3cc(C(=O)NC4(c5nc(C)no5)CC4)c(OC)cc3C)cc12 [drawing 598]	20	–	EC50 [2]: 1.6 nM
CNC(=O)c1c(-c2ccc(F)cc2)oc2ccc(-c3cc(C(=O)NC4(c5ncccn5)CC4)ccc3C)cc12 [drawing 599]	< 20	–	EC50 [2]: 0.304 nM
CNC(=O)c1c(-c2ccc(F)cc2)oc2ccc(-c3cc(C(=O)NC4(c5ccccn5)CC4)cc(F)c3C)cc12 [drawing 600]	10	–	EC50 [2]: 0.425 nM
CNC(=O)c1c(-c2ccc(F)cc2)oc2ccc(-c3cc(C(=O)NC4(c5ccccc5)CC4)ccc3C)cc12 [drawing 601]	20	–	EC50 [2]: 0.786 nM
CNC(=O)c1c(-c2ccc(F)cc2)oc2ccc(-c3cc(C(=O)NC4(c5nc(C)no5)CC4)ccc3C)cc12 [drawing 602]	7.2	–	EC50 [2]: 0.805 nM
CNC(=O)c1c(-c2ccc(F)cc2)oc2ccc(-c3cc(C(=O)NC4(c5ccncc5)CC4)ccc3C)cc12 [drawing 603]	3.95	–	EC50 [2]: 0.83 nM
CNC(=O)c1c(-c2ccc(F)cc2)oc2ccc(-c3cc(C(=O)NC4(c5ccccn5)CC4)ccc3Cl)cc12 [drawing 605]	10	1.83	–
CNC(=O)c1c(-c2ccc(F)cc2)oc2ccc(-c3cc(C(=O)NC4(c5ccccn5)CC4)ccc3C)cc12 [drawing 606]	8.6	1.95	–
CNC(=O)c1c(-c2ccc(F)cc2)oc2cc(N)c(-c3cccc(C(=O)NC(C)(C)c4ccccc4)c3)cc12 [drawing 607]	5.45	2.47	–
CNC(=O)c1c(-c2ccc(F)cc2)oc2ccc(-c3cc(C(=O)NC(C)(C)c4ccccc4)ccc3OC)cc12 [drawing 608]	9.65	3.04	–
CNC(=O)c1c(-c2ccc(F)cc2)oc2ccc(-c3cc(C(=O)NC4(c5ccccc5)CC4)ccc3F)cc12 [drawing 609]	20	3.57	–
CNC(=O)c1c(-c2ccc(F)cc2)oc2ccc(-c3cccc(C(=O)NC4(c5ccccc5)CC4)c3)cc12 [drawing 610]	5.9	3.58	–
CNC(=O)c1c(-c2ccc(F)cc2)oc2ccc(-c3cccc(C(=O)N4CCCCC4C)c3)cc12 (stereo not shown) [drawing 611]	290	1130	–
CNC(=O)c1c(-c2ccc(F)cc2)oc2ccc(-c3cccc(C(=O)N[C@H]4CCC[C@H]4c4ccc(Cl)cc4)c3)cc12 [drawing 612]	> 12500	1130	–
CNC(=O)c1c(-c2ccc(F)cc2)oc2ccc(-c3cccc(C(=O)N[C@@H](CO)C(C)C)c3)cc12 [drawing 613]	800	1250	–

Structure (SMILES)	IC50 ([3]; untitled table after Table 1b) [nM]	EC50 [4, 5] [nM]	further results
CCCC[C@H](CO)NC(=O)c1cccc(-c2ccc3oc(-c4ccc(F)cc4)c(C(=O)NC)c3c2)c1 [drawing 614]	600	1260	–
CNC(=O)c1c(-c2ccc(F)cc2)oc2ccc(-c3cccc(C(=O)NCCOC)c3)cc12 [drawing 615]	1710	1340	–
CNC(=O)c1c(-c2ccc(F)cc2)oc2ccc(-c3cccc(C(=O)N(C)CCC#N)c3)cc12 [drawing 616]	800	1380	–
CCC[C@H](CO)NC(=O)c1cccc(-c2ccc3oc(-c4ccc(F)cc4)c(C(=O)NC)c3c2)c1 [drawing 617]	1150	1390	–
CN1CN(C)c2c(-c3cccc(C(N)=O)c3)ccc3oc(-c4ccc(F)cc4)c(c23)C1=O [drawing 619]	> 12500	13700	–
CNC(=O)c1c(-c2ccc(F)cc2)oc2ccc(-c3ccc(C(=O)N(C)Cc4cccnc4)cc3)cc12 [drawing 620]	9920	15100	–
CNC(=O)c1c(-c2ccc(F)cc2)oc2ccc(-c3ccc(C(=O)N4CCC[C@@H]4COC)cc3)cc12 [drawing 621]	10400	15400	–
CNC(=O)c1c(-c2ccc(F)cc2)oc2ccc(-c3cccc(C(=O)N4CC[C@H](NC(C)=O)C4)c3)cc12 [drawing 622]	7130	16100	–
CNC(=O)c1c(-c2ccc(F)cc2)oc2ccc(-c3cc(C(=O)NC4(c5ncccn5)CC4)ccc3C)c(F)c12 [drawing 623]	–	–	EC50 [2]: 5.68 nM
CNC(=O)c1c(-c2ccc(F)cc2)oc2ccc(-c3cc(C(=O)NC4(c5ncc(C)s5)CC4)ccc3C)cc12 [drawing 625]	–	–	IC50 ([3]; Table 1d (class symbols)): < 20 nM; EC50 ([4]; 24 h, Table 1d (class symbols)): 1 to 250 nM
CNC(=O)c1c(-c2ccc(F)cc2)oc2ccc(-c3cc(C(=O)NC4(c5ccccn5)CC4)c(OCc4cnccn4)cc3C)cc12 [drawing 660]	–	–	IC50 ([3]; Table 1d (class symbols)): 1 to 250 nM; EC50 ([4]; 24 h, Table 1d (class symbols)): 1 to 250 nM
CNC(=O)c1c(-c2ccc(F)cc2)oc2ccc(-c3cc(C(=O)NC4(c5ncccn5)CC4)cc(F)c3C)c(F)c12 [drawing 668]	–	–	IC50 ([3]; Table 1d (class symbols)): 1 to 250 nM; EC50 ([4]; 24 h, Table 1d (class symbols)): 1 to 250 nM
CNC(=O)c1c(-c2ccc(F)cc2)oc2ccc(-c3cc(C(=O)NC4(c5ncc(C)s5)CC4)ccc3C)cc12 [drawing 708]	–	–	IC50 [3, 6]: < 17 nM; EC50 [4, 7]: 1.9 nM
CNC(=O)c1c(-c2ccc(F)cc2)oc2ccc(-c3cc(C(=O)NC4(c5ccccn5)CC4)c(OCc4cnccn4)cc3C)cc12 [drawing 711]	–	–	IC50 [3, 6]: 2.1 nM; EC50 [4, 7]: 1 nM
CNC(=O)c1c(-c2ccc(F)cc2)oc2ccc(-c3cc(C(=O)NC4(c5ncccn5)CC4)cc(F)c3C)c(F)c12 [drawing 712]	–	–	IC50 [3, 6]: 8.1 nM; EC50 [4, 7]: 2.4 nM
